Data from patent US20250213736A1, “SCISSION-ENHANCED NUCLEAR IMAGING AND TREATMENT” (The General Hospital Corporation, priority 2022, published 2025).

Experiment: LCMS analysis of DOTA-TCO-NHS linker immolation after Tz treatment in PBS (pH 7.4)
Assay type: physicochemical
Conditions: PBS with tetrazine (Tz-amine) added; 100 μM DOTA linker treated with 10 mM Tz-amine, PBS pH 7.4, LCMS; read-out: kinetics of linker immolation T1/2
Experimental: FIG. 6A contains line plots showing LCMS analysis of DOTA-TCO-NHS with varying ratios of HK-Tz added in PBS (pH 7.4). DOTA-TCO-NHS was synthesized as described in FIG. 3C, Characterized by NMR and then subjected to Tz treatment. Aliquots of 100 μM DOTA linker were treated with 10 mM Tz-amine and analyzed by LCMS after 30 min and 3 hours to determine the percentage of intact linker remaining. Shown are the kinetics of linker immolation (T1/2 12 min).

half-life at 100 μM: 12 min
Compound: CN(CC(=O)NCCCNC(=O)CCOCCOCCOCCOCCC(=O)ON1C(=O)CCC1=O)C(=O)OC1/C=C/C(OC(=O)N(C)CC(=O)NCCCNC(=O)CN2CCN(CC(=O)O)CCN(CC(=O)O)CCN(CC(=O)O)CC2)CCCC1 (stereo not shown) [DOTA-TCO-NHS]
